Measured values reported in the supplement of paper PMC9780213.

Legend:
Details in all cases: treatment time: 24 h
U2OS-mOrange2-Peroxisome = test: cell count relative to DMSO control (panel B, lysosome/peroxisome/lipid stain) (fraction of control); higher = more cells (less toxicity)
Protocol: (§1)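 U2OS-derived cells in 384-well plates were treated for 24 h with a 7-point 2-fold dilution series (top dose 20 µM for most compounds; final max DMSO 1%), then fixed, stained in four marker panels and imaged on a Cellomics ArrayScan. Cell count per treatment (three replicate plates merged) is given as a fraction of DMSO control. Panel A used parental U2OS, panel B U2OS-mOrange2-Peroxisome, panel C1 U2OS-LMNB1-TUBA1B-ACTB (DRAQ5 nuclei).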

U2OS-LMNB1-TUBA1B-ACTB = test: cell count relative to DMSO control (panel C1, DRAQ5/ER stain) (fraction of control); higher = more cells (less toxicity)
Protocol: as §1

U2OS = test: cell count relative to DMSO control (panel A, nuclei/RNA/PMG/mitochondria stain) (fraction of control); higher = more cells (less toxicity)
Protocol: as §1

| SMILES | cell count (U2OS-mOrange2-Peroxisome; 0.3125 µM) | cell count (U2OS-mOrange2-Peroxisome; 0.625 µM) | cell count (U2OS-mOrange2-Peroxisome; 1.25 µM) | cell count (U2OS-mOrange2-Peroxisome; 2.5 µM) | cell count (U2OS-mOrange2-Peroxisome; 5 µM) | cell count (U2OS-mOrange2-Peroxisome; 10 µM) | cell count (U2OS-mOrange2-Peroxisome; 20 µM) | cell count (U2OS-LMNB1-TUBA1B-ACTB; 0.3125 µM) | cell count (U2OS-LMNB1-TUBA1B-ACTB; 0.625 µM) | cell count (U2OS-LMNB1-TUBA1B-ACTB; 1.25 µM) | cell count (U2OS-LMNB1-TUBA1B-ACTB; 2.5 µM) | cell count (U2OS-LMNB1-TUBA1B-ACTB; 5 µM) | cell count (U2OS-LMNB1-TUBA1B-ACTB; 10 µM) | cell count (U2OS-LMNB1-TUBA1B-ACTB; 20 µM) | cell count (U2OS; 0.3125 µM) | cell count (U2OS; 0.625 µM) | cell count (U2OS; 1.25 µM) | cell count (U2OS; 2.5 µM) | cell count (U2OS; 5 µM) | cell count (U2OS; 10 µM) | cell count (U2OS; 20 µM) | cell count (U2OS-mOrange2-Peroxisome; 0.15625 µM) | cell count (U2OS-LMNB1-TUBA1B-ACTB; 0.15625 µM) | cell count (U2OS; 0.15625 µM) | cell count (U2OS-mOrange2-Peroxisome; 0.07812 µM) | cell count (U2OS-LMNB1-TUBA1B-ACTB; 0.07812 µM) | cell count (U2OS; 0.07812 µM) |
| --- | --- | --- | --- | --- | --- | --- | --- | --- | --- | --- | --- | --- | --- | --- | --- | --- | --- | --- | --- | --- | --- | --- | --- | --- | --- | --- | --- |
| CCCCCCCCCCCCCCCCCCOP(=O)([O-])OC1CC[N+](C)(C)CC1 [perifosine] | 0.846 | 0.987 | 0.869 | 0.928 | 1.12 | 0.704 | 0.364 | 1.11 | 1.15 | 1.09 | 0.996 | 1.01 | 0.753 | 0.363 | 0.989 | 1.07 | 1.02 | 0.99 | 0.979 | 0.592 | 0.285 | – | – | – | – | – | – |
| COc1cc([C@@H]2c3cc4c(cc3[C@H](O)[C@H]3COC(=O)[C@@H]23)OCO4)cc(OC)c1OC [picropodophyllin] | 0.803 | 1.07 | 0.951 | 1.42 | 1.24 | 1.15 | – | 0.954 | 1.04 | 1.03 | 1.02 | 0.926 | 0.738 | – | 0.88 | 0.899 | 0.978 | 0.94 | 0.929 | 0.701 | – | 0.97 | 0.924 | 0.97 | – | – | – |
| NS(=O)(=O)C#Cc1ccccc1 [pifithrin-mu] | 1.02 | 0.981 | 0.941 | 1.08 | 1.02 | 1.13 | – | 1.09 | 1.06 | 1.08 | 1.07 | 1.1 | 0.97 | – | 1.07 | 1.11 | 1.05 | 0.983 | 0.953 | 1.05 | – | 1.01 | 1.14 | 1.06 | – | – | – |
| COc1ccc(C[C@H](N)C(=O)N[C@H]2[C@@H](O)[C@H](n3cnc4c(N(C)C)ncnc43)O[C@@H]2CO)cc1 [puromycin] | 1.07 | 1.09 | 1.11 | 1.29 | 1.52 | – | – | 1.11 | 1.13 | 0.957 | 1.02 | 1.02 | – | – | 1.03 | 1.06 | 0.995 | 1.03 | 0.957 | – | – | 0.924 | 0.997 | 1.05 | 1.01 | 1.1 | 1.06 |
| COc1ccc(C2CNC(=O)C2)cc1OC1CCCC1 (stereo not drawn) [rolipram] | 0.884 | 0.894 | 1 | 0.96 | 1.13 | 0.726 | 1 | 0.979 | 1.14 | 0.963 | 1.03 | 1.01 | 1.02 | 1.01 | 1.04 | 1.07 | 0.964 | 0.96 | 0.915 | 1 | 0.959 | – | – | – | – | – | – |
| O=C(/C=C\n1cnc(-c2cc(C(F)(F)F)cc(C(F)(F)F)c2)n1)NNc1cnccn1 [selinexor] | 0.905 | 0.657 | 0.758 | 0.705 | 0.676 | 0.598 | 0.484 | 1.1 | 1.06 | 1.12 | 1.15 | 1.07 | 0.834 | 0.693 | 1.01 | 0.994 | 1.03 | 0.971 | 0.9 | 0.779 | 0.502 | – | – | – | – | – | – |
| CO[C@H]1C[C@@H]2CC[C@@H](C)[C@@](O)(O2)C(=O)C(=O)N2CCCC[C@H]2C(=O)O[C@H]([C@H](C)C[C@@H]2CC[C@@H](O)[C@H](OC)C2)CC(=O)[C@H](C)/C=C(\C)[C@@H](O)[C@@H](OC)C(=O)[C@H](C)C[C@H](C)/C=C/C=C/C=C/1C [sirolimus] | 0.81 | 0.644 | 0.677 | 0.521 | 0.453 | 0.451 | 0.372 | 1.12 | 0.947 | 1.07 | 0.944 | 0.94 | 0.711 | 0.745 | 1.08 | 0.8 | 0.967 | 1.05 | 0.947 | 0.766 | 0.755 | – | – | – | – | – | – |
| CC(NC(=O)c1ccccc1/N=C/c1c(O)ccc2ccccc12)c1ccccc1 (stereo not drawn) [sirtinol] | 0.607 | 0.507 | 0.491 | 0.365 | 0.37 | 0.373 | 0.339 | 0.886 | 0.842 | 0.727 | 0.552 | 0.338 | 0.357 | 0.367 | 0.858 | 0.782 | 0.659 | 0.462 | 0.195 | 0.192 | 0.17 | – | – | – | – | – | – |
